In article PMC10905675, “INX-315, a Selective CDK2 Inhibitor, Induces Cell Cycle Arrest and Senescence in Solid Tumors” (Cancer Discovery, 2023):

Columns and labels:
Assay in all cases: SelectScreen ZLYTE
Assay type in all cases: biochemical
Conditions in all cases: INX-0315 at 100nM
[1] = biological target: T1, BLK (Homo sapiens, UniProt P51451)
T1 construct: purchased Thermo Fisher Scientific SelectScreen (plus Nanosyn / Reaction Biology for CDK/cyclin lines)
Method in brief: (§1)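 Activity and binding formats were run as established by the profiling service; INX-315 entered at one concentration (100 nmol/L, 1% DMSO) before titration over a 1 µmol/L–0.0495 nmol/L range in ten steps.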

[2] = biological target: T2, MAP3K9 (MLK1) (Homo sapiens, UniProt P80192)
T2 construct: purchased Thermo Fisher Scientific SelectScreen (plus Nanosyn / Reaction Biology for CDK/cyclin lines)
Method in brief: as §1

[3] = biological target: T3, MERTK (cMER) (Homo sapiens, UniProt Q12866)
T3 construct: purchased Thermo Fisher Scientific SelectScreen (plus Nanosyn / Reaction Biology for CDK/cyclin lines)
Method in brief: as §1

[4] = biological target: T4, MAP2K2 (MEK2) (Homo sapiens, UniProt P36507)
T4 construct: purchased Thermo Fisher Scientific SelectScreen (plus Nanosyn / Reaction Biology for CDK/cyclin lines)
Method in brief: as §1

[5] = biological target: T5, EGFR (ErbB1) C797S (Homo sapiens, UniProt P00533, C797S)
T5 construct: purchased Thermo Fisher Scientific SelectScreen (plus Nanosyn / Reaction Biology for CDK/cyclin lines)
Method in brief: as §1

[6] = biological target: T6, MAP3K19 (YSK4) (Homo sapiens, UniProt Q56UN5)
T6 construct: purchased Thermo Fisher Scientific SelectScreen (plus Nanosyn / Reaction Biology for CDK/cyclin lines)
Method in brief: as §1

[7] = biological target: T7, CLK1 (Homo sapiens, UniProt P49759)
T7 construct: purchased Thermo Fisher Scientific SelectScreen (plus Nanosyn / Reaction Biology for CDK/cyclin lines)
Method in brief: as §1

[8] = biological target: T8, PAK1 (Homo sapiens, UniProt Q13153)
T8 construct: purchased Thermo Fisher Scientific SelectScreen (plus Nanosyn / Reaction Biology for CDK/cyclin lines)
Method in brief: as §1

[9] = biological target: T9, STK23 (MSSK1) (Homo sapiens, UniProt Q9UPE1)
T9 construct: purchased Thermo Fisher Scientific SelectScreen (plus Nanosyn / Reaction Biology for CDK/cyclin lines)
Method in brief: as §1

[10] = biological target: T10, MELK (Homo sapiens, UniProt Q14680)
T10 construct: purchased Thermo Fisher Scientific SelectScreen (plus Nanosyn / Reaction Biology for CDK/cyclin lines)
Method in brief: as §1

[11] = biological target: T11, CHEK1 (CHK1) (Homo sapiens, UniProt O14757)
T11 construct: purchased Thermo Fisher Scientific SelectScreen (plus Nanosyn / Reaction Biology for CDK/cyclin lines)
Method in brief: as §1

[12] = biological target: T12, FLT3 (Homo sapiens, UniProt P36888)
T12 construct: purchased Thermo Fisher Scientific SelectScreen (plus Nanosyn / Reaction Biology for CDK/cyclin lines)
Method in brief: as §1

[13] = biological target: T13, PAK3 (Homo sapiens, UniProt O75914)
T13 construct: purchased Thermo Fisher Scientific SelectScreen (plus Nanosyn / Reaction Biology for CDK/cyclin lines)
Method in brief: as §1

[14] = biological target: T14, DCAMKL1 (DCLK1) (Homo sapiens, UniProt O15075)
T14 construct: purchased Thermo Fisher Scientific SelectScreen (plus Nanosyn / Reaction Biology for CDK/cyclin lines)
Method in brief: as §1

[15] = biological target: T15, MAPK10 (JNK3) (Homo sapiens, UniProt P53779)
T15 construct: purchased Thermo Fisher Scientific SelectScreen (plus Nanosyn / Reaction Biology for CDK/cyclin lines)
Method in brief: as §1

[16] = biological target: T16, MARK2 (Homo sapiens, UniProt Q7KZI7)
T16 construct: purchased Thermo Fisher Scientific SelectScreen (plus Nanosyn / Reaction Biology for CDK/cyclin lines)
Method in brief: as §1

[17] = biological target: T17, CDK5/p25 (Homo sapiens, UniProt Q00535)
T17 construct: purchased BPS 40105
Method in brief: as §1

[18] = biological target: T18, CAMK1D (CaMKI delta) (Homo sapiens, UniProt Q8IU85)
T18 construct: purchased Thermo Fisher Scientific SelectScreen (plus Nanosyn / Reaction Biology for CDK/cyclin lines)
Method in brief: as §1

[19] = biological target: T19, FYN (Homo sapiens, UniProt P06241)
T19 construct: purchased Thermo Fisher Scientific SelectScreen (plus Nanosyn / Reaction Biology for CDK/cyclin lines)
Method in brief: as §1

[20] = biological target: T20, MAPK1 (ERK2) (Homo sapiens, UniProt P28482)
T20 construct: purchased Thermo Fisher Scientific SelectScreen (plus Nanosyn / Reaction Biology for CDK/cyclin lines)
Method in brief: as §1

[21] = biological target: T21, RET V804E (Homo sapiens, UniProt P07949, V804E)
T21 construct: purchased Thermo Fisher Scientific SelectScreen (plus Nanosyn / Reaction Biology for CDK/cyclin lines)
Method in brief: as §1

[22] = biological target: T22, BRAF (Homo sapiens, UniProt P15056)
T22 construct: purchased Thermo Fisher Scientific SelectScreen (plus Nanosyn / Reaction Biology for CDK/cyclin lines)
Method in brief: as §1

[23] = biological target: T23, LTK (TYK1) (Homo sapiens, UniProt P29376)
T23 construct: purchased Thermo Fisher Scientific SelectScreen (plus Nanosyn / Reaction Biology for CDK/cyclin lines)
Method in brief: as §1

[24] = biological target: T24, TEK (TIE2) Y897S (Homo sapiens, UniProt Q02763, Y897S)
T24 construct: purchased Thermo Fisher Scientific SelectScreen (plus Nanosyn / Reaction Biology for CDK/cyclin lines)
Method in brief: as §1

[25] = biological target: T25, PRKCN (PKD3) (Homo sapiens, UniProt O94806)
T25 construct: purchased Thermo Fisher Scientific SelectScreen (plus Nanosyn / Reaction Biology for CDK/cyclin lines)
Method in brief: as §1

[26] = biological target: T26, CDK1/cyclin B (Homo sapiens, UniProt P06493)
T26 construct: purchased Thermo Fisher Scientific SelectScreen (plus Nanosyn / Reaction Biology for CDK/cyclin lines)
Method in brief: as §1

[27] = biological target: T27, EEF2K (Homo sapiens, UniProt O00418)
T27 construct: purchased Thermo Fisher Scientific SelectScreen (plus Nanosyn / Reaction Biology for CDK/cyclin lines)
Method in brief: as §1

[28] = biological target: T28, MAPK12 (p38 gamma) (Homo sapiens, UniProt P53778)
T28 construct: purchased Thermo Fisher Scientific SelectScreen (plus Nanosyn / Reaction Biology for CDK/cyclin lines)
Method in brief: as §1

[29] = biological target: T29, ABL1 F317L (Homo sapiens, UniProt P00519, F317L)
T29 construct: purchased Thermo Fisher Scientific SelectScreen (plus Nanosyn / Reaction Biology for CDK/cyclin lines)
Method in brief: as §1

[30] = biological target: T30, ROS1 (Homo sapiens, UniProt P08922)
T30 construct: purchased Thermo Fisher Scientific SelectScreen (plus Nanosyn / Reaction Biology for CDK/cyclin lines)
Method in brief: as §1

[31] = biological target: T31, TNK1 (Homo sapiens, UniProt Q13470)
T31 construct: purchased Thermo Fisher Scientific SelectScreen (plus Nanosyn / Reaction Biology for CDK/cyclin lines)
Method in brief: as §1

[32] = biological target: T32, SRC (Homo sapiens, UniProt P12931)
T32 construct: purchased Thermo Fisher Scientific SelectScreen (plus Nanosyn / Reaction Biology for CDK/cyclin lines)
Method in brief: as §1

[33] = biological target: T33, INSRR (IRR) (Homo sapiens, UniProt P14616)
T33 construct: purchased Thermo Fisher Scientific SelectScreen (plus Nanosyn / Reaction Biology for CDK/cyclin lines)
Method in brief: as §1

[34] = biological target: T34, PRKCB1 (PKC beta I) (Homo sapiens, UniProt P05771)
T34 construct: purchased Thermo Fisher Scientific SelectScreen (plus Nanosyn / Reaction Biology for CDK/cyclin lines)
Method in brief: as §1

[35] = biological target: T35, MST1R (RON) (Homo sapiens, UniProt Q04912)
T35 construct: purchased Thermo Fisher Scientific SelectScreen (plus Nanosyn / Reaction Biology for CDK/cyclin lines)
Method in brief: as §1

[36] = biological target: T36, EPHA8 (Homo sapiens, UniProt P29322)
T36 construct: purchased Thermo Fisher Scientific SelectScreen (plus Nanosyn / Reaction Biology for CDK/cyclin lines)
Method in brief: as §1

[37] = biological target: T37, EGFR (ErbB1) T790M (Homo sapiens, UniProt P00533, T790M)
T37 construct: purchased Thermo Fisher Scientific SelectScreen (plus Nanosyn / Reaction Biology for CDK/cyclin lines)
Method in brief: as §1

T28 sequence (P53778 whole entry): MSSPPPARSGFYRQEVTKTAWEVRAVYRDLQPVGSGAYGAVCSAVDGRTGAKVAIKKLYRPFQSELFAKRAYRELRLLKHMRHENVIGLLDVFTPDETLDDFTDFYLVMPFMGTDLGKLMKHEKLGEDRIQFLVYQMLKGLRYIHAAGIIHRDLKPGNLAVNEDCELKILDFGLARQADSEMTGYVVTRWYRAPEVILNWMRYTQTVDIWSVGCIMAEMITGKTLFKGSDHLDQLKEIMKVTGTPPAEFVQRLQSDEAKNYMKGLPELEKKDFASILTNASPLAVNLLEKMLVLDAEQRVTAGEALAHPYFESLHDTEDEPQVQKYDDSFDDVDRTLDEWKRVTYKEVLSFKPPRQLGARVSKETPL
T15 sequence (P53779 whole entry): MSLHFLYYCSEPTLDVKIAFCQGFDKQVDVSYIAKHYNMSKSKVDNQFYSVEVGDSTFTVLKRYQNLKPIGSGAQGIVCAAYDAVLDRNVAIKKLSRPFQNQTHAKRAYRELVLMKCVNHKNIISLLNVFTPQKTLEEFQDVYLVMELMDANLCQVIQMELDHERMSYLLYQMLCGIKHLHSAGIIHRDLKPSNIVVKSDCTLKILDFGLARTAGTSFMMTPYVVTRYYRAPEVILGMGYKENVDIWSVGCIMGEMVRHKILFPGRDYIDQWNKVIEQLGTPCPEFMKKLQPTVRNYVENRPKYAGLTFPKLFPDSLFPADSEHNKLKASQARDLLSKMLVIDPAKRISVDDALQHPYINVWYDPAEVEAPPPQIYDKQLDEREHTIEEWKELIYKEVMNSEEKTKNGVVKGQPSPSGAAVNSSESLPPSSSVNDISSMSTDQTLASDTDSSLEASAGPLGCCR
T8 sequence (Q13153 whole entry): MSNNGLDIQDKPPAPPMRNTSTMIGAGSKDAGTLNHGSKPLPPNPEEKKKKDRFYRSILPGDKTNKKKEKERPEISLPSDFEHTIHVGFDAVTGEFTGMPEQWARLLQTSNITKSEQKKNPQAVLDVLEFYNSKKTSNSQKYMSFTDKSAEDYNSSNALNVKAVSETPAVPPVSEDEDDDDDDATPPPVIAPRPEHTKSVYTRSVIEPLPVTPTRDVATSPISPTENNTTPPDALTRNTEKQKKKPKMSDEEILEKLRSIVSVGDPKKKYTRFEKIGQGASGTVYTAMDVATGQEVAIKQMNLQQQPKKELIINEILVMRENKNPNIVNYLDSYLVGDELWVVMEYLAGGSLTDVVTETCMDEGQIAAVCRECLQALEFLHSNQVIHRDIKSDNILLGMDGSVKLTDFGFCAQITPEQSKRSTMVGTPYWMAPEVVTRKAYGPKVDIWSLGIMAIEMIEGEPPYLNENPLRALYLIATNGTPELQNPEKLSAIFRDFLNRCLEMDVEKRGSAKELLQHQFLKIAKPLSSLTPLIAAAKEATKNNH
T16 sequence (Q7KZI7 whole entry): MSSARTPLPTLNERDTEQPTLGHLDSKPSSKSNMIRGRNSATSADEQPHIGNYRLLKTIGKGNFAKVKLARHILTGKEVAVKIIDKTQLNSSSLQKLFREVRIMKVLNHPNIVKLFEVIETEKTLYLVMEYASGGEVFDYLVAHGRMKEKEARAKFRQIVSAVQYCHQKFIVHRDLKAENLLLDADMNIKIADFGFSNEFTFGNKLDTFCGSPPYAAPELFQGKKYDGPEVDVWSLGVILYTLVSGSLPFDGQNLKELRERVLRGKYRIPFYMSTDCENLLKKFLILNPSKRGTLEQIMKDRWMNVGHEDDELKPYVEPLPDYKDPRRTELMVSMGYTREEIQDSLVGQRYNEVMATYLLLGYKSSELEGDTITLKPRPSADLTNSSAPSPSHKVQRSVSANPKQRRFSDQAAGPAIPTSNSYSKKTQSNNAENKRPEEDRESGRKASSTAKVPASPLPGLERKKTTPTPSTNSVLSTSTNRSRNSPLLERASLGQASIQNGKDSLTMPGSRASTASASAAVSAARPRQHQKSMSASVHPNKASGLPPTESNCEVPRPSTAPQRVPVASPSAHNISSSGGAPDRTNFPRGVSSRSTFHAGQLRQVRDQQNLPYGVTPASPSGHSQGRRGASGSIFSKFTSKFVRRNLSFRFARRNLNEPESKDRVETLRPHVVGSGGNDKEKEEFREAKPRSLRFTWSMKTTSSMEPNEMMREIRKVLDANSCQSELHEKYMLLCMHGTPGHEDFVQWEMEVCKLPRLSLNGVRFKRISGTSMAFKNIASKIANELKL
T23 sequence (P29376 17-864): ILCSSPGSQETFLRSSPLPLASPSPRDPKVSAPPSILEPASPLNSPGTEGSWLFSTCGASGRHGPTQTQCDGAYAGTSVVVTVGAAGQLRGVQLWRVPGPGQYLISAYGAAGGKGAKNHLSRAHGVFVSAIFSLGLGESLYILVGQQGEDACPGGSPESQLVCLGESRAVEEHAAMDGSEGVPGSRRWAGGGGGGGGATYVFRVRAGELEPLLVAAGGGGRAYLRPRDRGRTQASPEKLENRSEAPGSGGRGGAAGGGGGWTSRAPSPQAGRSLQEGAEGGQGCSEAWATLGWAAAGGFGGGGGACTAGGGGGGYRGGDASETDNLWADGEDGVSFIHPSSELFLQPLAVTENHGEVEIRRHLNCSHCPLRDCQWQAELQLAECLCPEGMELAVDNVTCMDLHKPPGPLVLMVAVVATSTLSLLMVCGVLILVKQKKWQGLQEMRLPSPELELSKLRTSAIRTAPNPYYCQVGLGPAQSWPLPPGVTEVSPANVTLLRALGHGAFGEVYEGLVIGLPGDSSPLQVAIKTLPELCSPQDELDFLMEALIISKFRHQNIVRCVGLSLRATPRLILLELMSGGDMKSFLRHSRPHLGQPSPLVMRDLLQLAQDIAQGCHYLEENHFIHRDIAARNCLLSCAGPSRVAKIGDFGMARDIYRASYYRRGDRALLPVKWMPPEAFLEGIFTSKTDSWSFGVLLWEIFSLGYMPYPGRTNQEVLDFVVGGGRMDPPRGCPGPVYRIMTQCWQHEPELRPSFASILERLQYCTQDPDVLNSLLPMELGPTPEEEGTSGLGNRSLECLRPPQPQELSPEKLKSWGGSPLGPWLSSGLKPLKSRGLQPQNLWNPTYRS
T34 sequence (P05771 whole entry): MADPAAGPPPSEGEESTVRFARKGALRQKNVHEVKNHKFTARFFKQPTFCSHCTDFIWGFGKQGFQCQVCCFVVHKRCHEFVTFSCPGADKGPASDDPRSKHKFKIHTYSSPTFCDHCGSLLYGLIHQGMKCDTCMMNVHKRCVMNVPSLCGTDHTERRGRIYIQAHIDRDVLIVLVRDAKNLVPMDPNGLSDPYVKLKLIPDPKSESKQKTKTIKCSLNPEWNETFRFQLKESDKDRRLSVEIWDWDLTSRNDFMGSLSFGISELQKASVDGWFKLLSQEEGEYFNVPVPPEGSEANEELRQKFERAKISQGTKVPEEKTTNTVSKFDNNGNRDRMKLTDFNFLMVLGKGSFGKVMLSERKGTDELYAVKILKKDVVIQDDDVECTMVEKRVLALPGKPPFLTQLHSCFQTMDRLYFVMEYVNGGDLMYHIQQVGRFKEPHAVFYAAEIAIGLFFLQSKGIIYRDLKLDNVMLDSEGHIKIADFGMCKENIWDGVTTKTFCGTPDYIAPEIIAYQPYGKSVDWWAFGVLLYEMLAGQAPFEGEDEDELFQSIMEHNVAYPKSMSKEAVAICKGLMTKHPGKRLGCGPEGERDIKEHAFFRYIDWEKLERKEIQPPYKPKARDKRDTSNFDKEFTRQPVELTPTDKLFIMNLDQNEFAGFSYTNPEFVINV
T35 sequence (Q04912 25-1400): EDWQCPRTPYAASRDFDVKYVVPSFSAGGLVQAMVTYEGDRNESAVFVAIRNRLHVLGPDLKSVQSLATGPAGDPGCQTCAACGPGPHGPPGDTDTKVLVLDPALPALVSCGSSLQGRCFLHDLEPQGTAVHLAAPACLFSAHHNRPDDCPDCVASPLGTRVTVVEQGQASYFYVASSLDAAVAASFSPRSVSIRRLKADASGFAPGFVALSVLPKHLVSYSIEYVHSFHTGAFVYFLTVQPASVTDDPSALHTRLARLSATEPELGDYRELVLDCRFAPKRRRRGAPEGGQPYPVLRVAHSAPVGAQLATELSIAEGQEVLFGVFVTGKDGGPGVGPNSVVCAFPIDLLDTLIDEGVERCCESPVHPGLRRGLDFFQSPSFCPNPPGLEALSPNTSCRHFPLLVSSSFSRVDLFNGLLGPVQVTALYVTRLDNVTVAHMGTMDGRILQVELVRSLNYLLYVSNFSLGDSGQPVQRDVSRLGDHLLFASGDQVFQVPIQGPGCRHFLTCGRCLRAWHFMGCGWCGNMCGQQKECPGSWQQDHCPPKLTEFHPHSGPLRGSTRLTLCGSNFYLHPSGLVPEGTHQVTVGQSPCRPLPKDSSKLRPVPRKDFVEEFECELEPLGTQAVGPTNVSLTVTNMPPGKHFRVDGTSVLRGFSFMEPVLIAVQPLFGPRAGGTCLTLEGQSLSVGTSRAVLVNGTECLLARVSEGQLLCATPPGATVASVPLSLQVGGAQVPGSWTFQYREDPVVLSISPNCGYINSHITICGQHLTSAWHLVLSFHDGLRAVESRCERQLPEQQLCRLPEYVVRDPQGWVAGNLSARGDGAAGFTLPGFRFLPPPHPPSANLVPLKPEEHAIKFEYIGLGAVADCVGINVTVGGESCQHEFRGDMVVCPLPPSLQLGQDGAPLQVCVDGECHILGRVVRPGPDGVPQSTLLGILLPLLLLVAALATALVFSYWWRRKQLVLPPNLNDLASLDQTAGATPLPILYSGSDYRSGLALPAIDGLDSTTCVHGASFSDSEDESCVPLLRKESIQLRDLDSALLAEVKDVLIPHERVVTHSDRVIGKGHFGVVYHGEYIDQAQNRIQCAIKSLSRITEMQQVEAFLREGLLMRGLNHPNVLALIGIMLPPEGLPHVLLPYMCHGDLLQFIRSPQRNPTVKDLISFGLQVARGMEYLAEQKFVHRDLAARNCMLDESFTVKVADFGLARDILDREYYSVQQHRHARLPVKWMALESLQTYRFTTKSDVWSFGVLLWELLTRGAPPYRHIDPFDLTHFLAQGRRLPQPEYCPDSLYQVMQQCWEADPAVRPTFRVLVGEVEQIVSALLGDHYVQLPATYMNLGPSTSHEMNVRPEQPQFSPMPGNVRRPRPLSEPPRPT

NS(=O)(=O)c1ccc(Nc2ncc3cc4n(c3n2)C2(CCCCC2)C(=O)NN4)cc1 [INX-315]
inhibition at 0.1 µM [1]: 11%
inhibition at 0.1 µM [2]: 22%
inhibition at 0.1 µM [3]: 20%
inhibition at 0.1 µM [4]: 17%
inhibition at 0.1 µM [5]: -8%
inhibition at 0.1 µM [6]: 13%
inhibition at 0.1 µM [7]: 5%
inhibition at 0.1 µM [8]: 6%
inhibition at 0.1 µM [9]: 6%
inhibition at 0.1 µM [10]: 10%
inhibition at 0.1 µM [11]: 2%
inhibition at 0.1 µM [12]: 40%
inhibition at 0.1 µM [13]: 4%
inhibition at 0.1 µM [14]: 9%
inhibition at 0.1 µM [15]: 11%
inhibition at 0.1 µM [16]: 9%
inhibition at 0.1 µM [17]: 93%
inhibition at 0.1 µM [18]: 1%
inhibition at 0.1 µM [19]: 4%
inhibition at 0.1 µM [20]: 4%
inhibition at 0.1 µM [21]: 13%
inhibition at 0.1 µM [22]: 11%
inhibition at 0.1 µM [23]: 7%
inhibition at 0.1 µM [24]: 6%
inhibition at 0.1 µM [25]: 13%
inhibition at 0.1 µM [26]: 58%
inhibition at 0.1 µM [27]: 4%
inhibition at 0.1 µM [28]: 9%
inhibition at 0.1 µM [29]: 3%
inhibition at 0.1 µM [30]: 19%
inhibition at 0.1 µM [31]: 14%
inhibition at 0.1 µM [32]: 8%
inhibition at 0.1 µM [33]: 3%
inhibition at 0.1 µM [34]: 12%
inhibition at 0.1 µM [35]: 2%
inhibition at 0.1 µM [36]: 16%
inhibition at 0.1 µM [37]: 5%
